The test system of the experiment is 496974-208-R-J2-PDC complex spheroids, growth % test/control. Nature of the experiment: Anticancer human tumor 496974-208-R-J2-PDC patient-derived pancreatic carcinoma cell line growth inhibition [CLK]. The following applies: for viability, T/C: stronger effect = lower value; for IC50: curve of compound. An excerpt:
A high-throughput screen of multi-cell type tumor spheroids was designed to identify active combinations of […] and targeted small molecules. Complex spheroids include a stromal component modeled by human endothelial cells (HUVEC) and fibroblasts modeled by human mesenchymal stem cells (MSCs). The concentration ranges selected for each drug and investigational agent were based upon clinically achievable concentrations if the clinical Cmax of the agent was known.
Compounds. The drugs and investigational agents: cirtuvivint (SM08502; NSC835563), CC-671 (NSC850746), vemurafenib (NSC761431), tapotoclax (NSC804041), sotorasib (NSC818433), adagrasib (NSC831453), MRTX-1133 (NSC836407), BAY2416964 (NSC825713), copanlisib (NSC816437), inavolisib (NSC800729), abemaciclib (NSC768073), osimertinib (NSC779217), entinostat (NSC756642), eltanexor (KPT-8602, NSC794443), venetoclax (NSC766270), ceralasertib (NSC777638), bortezomib (NSC756655), olaparib (NSC753686), talazoparib (NSC767125), alisertib (NSC759677), peposertib (NSC802822), gemcitabine (NSC613327), 5-fluorouracil (NSC19893), SN-38 (NSC673596), oxaliplatin (NSC266046), paclitaxel (NSC125973), and doxorubicin (NSC123127), were obtained from the National Cancer Institute (NCI) Developmental Therapeutics Program Chemical Repository. The FDA-approved anticancer drug set is available from the Developmental Therapeutics Program at https://dtp.cancer.gov/organization/dscb/obtaining/available plates.htm. […] The stock solutions were prepared in dimethyl sulfoxide (DMSO, Sigma-Aldrich, St. Louis, MO, cat. D2650), except for the platinum complexes which were prepared in saline (Quality Biological, Gaithersburg, MD, cat. 114-055-101), at 800-fold the tested concentration and stored at -70 degrees C prior to their use. All drugs and investigational agents were tested over a range starting from a high concentration at or near the clinical Cmax and decreasing in half-log increments. If the clinical Cmax for an agent had not been determined, the highest concentration tested was 10 microM.
Cell Culture. All cells were maintained in an incubator at 37 degrees C and 5% CO2 with 95% humidity. The PDC lines were cultured according to standard operating procedures established by the NCI PDMR. Briefly, all PDCs were thawed and cultured in Matrigel-coated flasks prepared with a working solution of 1X Ham's F-12 nutrient mix, without supplementation (Invitrogen, Waltham, MA, cat. 11765054), 100 U/mL penicillin-streptomycin (Invitrogen, cat. 15140122), and 2.5% Matrigel (Corning Inc., Corning, NY, cat. 354248) for the first three passages. The 947758-054-R-J2-PDC line was cultured in 6B/Colon 1A media, which includes advanced DMEM/F-12 (Thermo Fisher Scientific, cat. 12634028), 10 mM HEPES (Thermo Fisher Scientific, cat. 15630080), 1X GlutaMAX supplement (Thermo Fisher Scientific, cat. 35050061), 0.1 mg/mL primocin (InvivoGen, cat. ant-pm-2), 10% defined fetal bovine serum, heat inactivated (HyClone Laboratories Inc., cat. SH30070.03HI), 1.25 mM N-Acetyl-L-cysteine (Sigma-Aldrich, cat. A9165), 10 mM nicotinamide (Sigma-Aldrich, cat. N0636), 1X B-27 supplement (Thermo Fisher Scientific, cat. 17504044), 1X N-2 supplement (Thermo Fisher Scientific, cat. 17502048), and 10 microM Y-27632 dihydrochloride (Tocris Bioscience, cat. 1254). The 876862-298-R-J1-PDC was cultured in 6E media, which includes all 6B/Colon 1A media components plus 50% L-WRN conditioned media (ATCC, cat. CRL-3276), 50 ng/mL recombinant human EGF recombinant protein (hEGF; Thermo Fisher Scientific, cat. PHG0311), 10 ng/mL recombinant human fibroblast growth factor 10 (hGFG-10; PeproTech, cat. 100-26), 1 ng/mL recombinant human fibroblast growth factor 2 (hFGF-2; PeproTech, cat. 100-18B), and 1 µM prostaglandin E2 (PGE2; Tocris, cat. 2296). The 227483-062-R1-J1-PDC line was cultured in Panc media, containing all 6E components except hFGF-2, with the addition of 500 nM SB-431542 (Selleckchem, cat. S1067) and 10 nM gastrin (Tocris, cat. 3006). […]

Several values for one entry are separate records, joined by “and”; a condition that tells them apart may be missing. Identical values can stand only once.
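Note: spheroids exposed to the drugs for 7 days before readout.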
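Throughout, for viability, T/C: 100% = DMSO vehicle control wells.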

In the case of `CC(=O)O[C@H]1C(=O)[C@@]2(C)[C@H]([C@H](OC(=O)c3ccccc3)[C@]3(O)C[C@H](OC(=O)[C@H](O)[C@@H](NC(=O)c4ccccc4)c4ccccc4)C(C)=C1C3(C)C)[C@]1(OC(C)=O)CO[C@@H]1C[C@@H]2O`, the IC50 is less than 0.0316 µM. The viability, T/C (compound 0.0316 µM) was 34.8%. Further, the viability, T/C (compound 0.1 µM) is 28.4%. Moreover, the viability, T/C (compound 0.316 µM) was 30.7%. For the same compound, the viability, T/C (compound 1 µM) was 27.8%. The viability, T/C (compound 3.16 µM) was 38.6%. Moreover, under “compound 10 µM”, the viability, T/C is 29.1%.
For the compound `CC1(C)CCC(CN2CCN(c3ccc(C(=O)NS(=O)(=O)c4ccc(NCC5CCOCC5)c([N+](=O)[O-])c4)c(Oc4cnc5[nH]ccc5c4)c3)CC2)=C(c2ccc(Cl)cc2)C1`, the IC50 is 8.67 µM and 8.19 µM. Besides, the viability, T/C (compound 0.0316 µM) is 115% and 95.7%. In addition, where the note is “compound 0.1 µM”, the viability, T/C is 89% and 88.2%. Also, the viability, T/C (compound 0.316 µM) is 99% and 101%. For the same compound, for the setting “compound 1 µM”, the viability, T/C is 99.4% and 99.5%. The viability, T/C (compound 3.16 µM) is 96.8% and 94.7%. For the setting “compound 10 µM”, the viability, T/C was 43.4% and 40.6%.
Consider `CC1COCCN1c1cc(C2(S(C)(=N)=O)CC2)nc(-c2ccnc3[nH]ccc23)n1` (configuration not stated), for which the IC50 was 5.36 µM and 7.19 µM. Also, where the note is “compound 0.0316 µM”, the viability, T/C was 119% and 107%. Moreover, where the note is “compound 0.1 µM”, the viability, T/C is 105% and 97.9%. Under “compound 0.316 µM”, the viability, T/C is 85.5% and 91%. Also, the viability, T/C (compound 1 µM) is 94.4% and 89.3%. Besides, the viability, T/C (compound 3.16 µM) was 57.5% and 62%. The viability, T/C (compound 10 µM) is 36% and 44.6%.
As to `COc1ccc([C@@H](O)c2cc(-c3ncnc4cc(N5CCOCC5)ccc34)c(F)cc2Cl)nn1`, the IC50 was 4.92 µM and 7.03 µM. In addition, where the note is “compound 0.0316 µM”, the viability, T/C is 104%. Further, under “compound 0.1 µM”, the viability, T/C is 91.3% and 92.1%. Moreover, the viability, T/C (compound 0.316 µM) is 87% and 103%. Where the note is “compound 1 µM”, the viability, T/C is 77.4% and 80.6%. For the same compound, for the setting “compound 3.16 µM”, the viability, T/C is 64.5% and 71.6%. Further, under “compound 10 µM”, the viability, T/C is 31.2% and 40.8%.
Consider `COc1cccc2c1C(=O)c1c(O)c3c(c(O)c1C2=O)CC(O)(C(=O)CO)CC3OC1CC(N)C(O)C(C)O1` (configuration not stated), for which the IC50 was 0.121 µM and 0.177 µM. Under “compound 0.0316 µM”, the viability, T/C was 73.2% and 85.7%. Further, where the note is “compound 0.1 µM”, the viability, T/C is 53.8% and 61.2%. The viability, T/C (compound 0.316 µM) is 26% and 39.9%. Under “compound 1 µM”, the viability, T/C is 2.82% and 3.77%. Further, the viability, T/C (compound 3.16 µM) is 0.71% and 0.67%. For the same compound, under “compound 10 µM”, the viability, T/C was 1.39% and 0.57%.
On to `Nc1ccccc1NC(=O)c1ccc(CNC(=O)OCc2cccnc2)cc1`, for which the IC50 was 4.37 µM and 4.16 µM. Besides, the viability, T/C (compound 0.0316 µM) is 104% and 112%. Also, for the setting “compound 0.1 µM”, the viability, T/C was 86.3% and 98.7%. Further, the viability, T/C (compound 0.316 µM) was 85.9% and 86.6%. Also, the viability, T/C (compound 1 µM) was 77.5% and 72.4%. The viability, T/C (compound 3.16 µM) is 74.1% and 77.9%. Also, the viability, T/C (compound 10 µM) is 0.53% and 0.83%.
In the case of `Nc1ccn(C2OC(CO)C(O)C2(F)F)c(=O)n1` (configuration not stated), the viability, T/C is 89.3% and 93.5% (compound 0.0316 µM); 67.2% and 76.4% (compound 0.1 µM); 57.7% and 72.4% (compound 0.316 µM); 44.9% and 58% (compound 1 µM); 50.7% and 63.3% (compound 3.16 µM); 44.3% and 53.2% (compound 10 µM).
For `O=C(c1cc(Cc2n[nH]c(=O)c3ccccc23)ccc1F)N1CCN(C(=O)C2CC2)CC1`, the IC50 is more than 10 µM. In addition, the viability, T/C (compound 0.0316 µM) was 99.1%. Moreover, for the setting “compound 0.1 µM”, the viability, T/C was 85.5%. The viability, T/C (compound 0.316 µM) is 94.7%. Besides, under “compound 1 µM”, the viability, T/C was 98.4%. Also, the viability, T/C (compound 3.16 µM) is 95.2%. Besides, where the note is “compound 10 µM”, the viability, T/C is 86.7%.
As for `O=c1[nH]cc(F)c(=O)[nH]1`, the IC50 is 6.83 µM and > 10 µM. Further, the viability, T/C (compound 0.0316 µM) is 114% and 115%. The viability, T/C (compound 0.1 µM) was 103% and 95.1%. The viability, T/C (compound 0.316 µM) is 101%. Moreover, under “compound 1 µM”, the viability, T/C was 78.4% and 79.6%. Further, the viability, T/C (compound 3.16 µM) is 55.1% and 71.4%. For the same compound, the viability, T/C (compound 10 µM) was 47.6% and 53.4%.

A word on the viability, T/C: it is the result in the treated group divided by that in the control group, in per cent. Broadly, the IC50 is the midpoint of a concentration-inhibition curve.

The values are drawn from PubChem BioAssay AID2060615 (Molecular Pharmacology Branch, DTP, NCI, 2025).
